We go through 24 compounds from patent US20260248763A1 (BIO GENUINE (SHANGHAI) BIOTECH CO., LTD, priority 2023, published 2026).

The target in this test is T1, OTR (Homo sapiens, UniProt P30559).
T1 construct: expressed in transfected cells; host or cells: OTR/HEK293 stably transfected cell line
T1 sequence (P30559 1-389): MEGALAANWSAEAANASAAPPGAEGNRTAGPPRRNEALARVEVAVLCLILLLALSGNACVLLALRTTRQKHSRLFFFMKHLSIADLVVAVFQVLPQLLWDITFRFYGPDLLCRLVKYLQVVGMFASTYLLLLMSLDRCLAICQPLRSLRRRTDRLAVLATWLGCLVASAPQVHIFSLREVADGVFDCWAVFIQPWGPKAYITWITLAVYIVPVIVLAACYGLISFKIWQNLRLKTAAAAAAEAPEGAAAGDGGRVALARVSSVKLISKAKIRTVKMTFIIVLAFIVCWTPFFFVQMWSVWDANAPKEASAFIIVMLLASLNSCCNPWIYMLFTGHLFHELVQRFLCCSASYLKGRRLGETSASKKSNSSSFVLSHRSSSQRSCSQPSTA
The test can be described thus: Ca2+ mobilization in cells stably expressing OTR (FLIPR, antagonist mode). In kind it is cell-based. Particulars: OTR/HEK293 stably transfected cell line. An excerpt:
Test Example 1. Determination of the Effect of the Compound of the Present Disclosure on Ca^2+ Mobilization in Cells Stably Expressing OTR
To measure the antagonistic effect of the compound of the present disclosure on OTR activity expressed in the OTR/HEK293 stably transfected cell line.
• DMEM medium (Invitrogen, 11965) • F12 medium (Invitrogen, 11765) • Fetal bovine serum (Excell, FSP500) • Geneticin (Invitrogen, 10131) • Penicillin/Streptomycin (Invitrogen, SV30010) • Fluo-4 Direct kit (Invitrogen, F10471) • 384-well cell plate (Greiner, 781090) • 384-well compound plate (Greiner, 781280)
• FLIPR instrument (Molecular Device) • EHCO instrument (Labcyte) • Cell counter (Beckman, Vi-cell XR)
The cultured cells were washed twice with pre-heated DPBS and digested with appropriate amount of trypsin at 37° C. for 1 minute, and then appropriate amount of culture medium was added to terminate digestion. The cells were centrifuged at 1000 rpm for 5 minutes. The supernatant was gently discarded without disturbing the cell pellet at the bottom. The cells were resuspended in culture medium and 1 mL was taken out for cell counting and viability assessment using Vi-CELL™. The cells were diluted to 1×10^6 cells/mL (20,000 cells/20 μL) with culture medium, seeded into a 384-well cell plate and incubated at 37° C. with 5% CO2 for 16-20 h.
Formulation of 250 mM Probenecid solution: according to the kit instructions, 1 mL of FLIPR buffer salt solution was added to 77 mg of probenecid, prepared fresh just before use. Formulation of Fluo-4 Direct™ (2×, 8 μM) loading buffer: according to the kit instructions, the required amount of Fluo-4 Direct™ was taken out and thawed in advance, 10 mL of FLIPR buffer salt solution and 0.2 mL of 250 mM Probenecid solution were added to each tube, and the mixture was vortexed in the dark for >5 minutes, prepared fresh just before use.
Preparation of agonist reference compound plate: the agonist was diluted 3-fold in 10 points using ECHO, and 750 nL was transferred to the corresponding compound plate using ECHO.
Preparation of reference and test compound plates: the test compound was diluted 3-fold in 10 points with ECHO, and 900 nL was transferred to the corresponding compound plate; the reference compound was diluted 3-fold in 10 points with assay buffer salt solution, and 30 μL was transferred to the compound plate.
30 μL of assay buffer salt solution was added to the corresponding compound plate, and the mixture was centrifuged at 1000 rpm for 1 minute.
The cell plate prepared the day before was taken out of the incubator, and 20 μL of 2×Fluo-4 Direct™ buffer was added to each well, with a total volume of 40 μL.
The plate was incubated in an incubator at 37° C. with 5% CO2 for 50 minutes, and then placed at room temperature for 10 minutes.
The compound plate, cell plate, and pipette tips were placed into the instrument.
For the agonist reference compound plate: the FLIPR instrument software was run, 10 μL of the pre-determined concentration of agonist reference compound was added to the cell plate following the preset protocol, and the fluorescence signal was read. After reading, the data were exported to calculate the EC80 for each cell line, and the agonist at 6×EC80 concentration was prepared.
For the compound plate: the FLIPR instrument software was run, 10 μL of the pre-determined concentration of test compound and the reference compound were added to the cell plate following the preset protocol, and the fluorescence signal was read. 10 μL of the reference compound agonist at 6×EC80 concentration was added to the cell plate, and the fluorescence signal was read. For antagonist detection of the compound, the data were exported using the “Max-Min” and “Read 1 to Maximum allowed” methods in the software, and the data were fitted using Prism.
For `CON=C1CN(C(=O)c2ccc(-c3ccccc3C)cc2)C2COCCN12` (mixture of isomers) [Example C0033, (EZ)-(3-(Methoxyimino)hexahydro-1H-imidazo[2,1-c][1,4]oxazin-1-yl)(2′-methyl-[1, 1′-biphenyl]-4-yl)methanone], inhibition was half-maximal at 1900 nM (IC50). The value for `CO/N=C1/CC2(CO)CCC1N2C(=O)c1ccc(-c2ccccc2C)cc1` (single isomer, unassigned) [Example A0087] was 1080 nM; that for `CON=C1CC(C(=O)NCC(O)c2ccccc2)N(C(=O)c2ccc(-c3cccc(C#N)c3C)cc2)C1` (single isomer, unassigned) [Example A0229, (25, E)-1-(3′-Cyano-2′-methyl-[1,1′-biphenyl]-4-carbonyl)-N-(2-hydroxy-2-phenethyl)-4-(methoxyimino)pyrrolidine-2-carboxamide] was 122 nM; that for `CON=C1CC(C(=O)NCC(O)c2ccccc2)N(C(=O)c2ccc(-c3cccc(C#N)c3C)cc2)C1` (single isomer, unassigned) [Example A0233, (25, Z)-1-(3′-Cyano-2′-methyl-[1,1′-biphenyl]-4-carbonyl)-N-(2-hydroxy-2-phenethyl)-4-(methoxyimino)pyrrolidine-2-carboxamide] was 48.3 nM.

`CON=C1C[C@@H](CNC(C)=O)N(C(=O)c2ccc(-c3ccccc3C)cc2)C1` (single isomer, unassigned) [Example C0006] gave an IC50 of 1740 nM. Consider `CO/N=C1/C[C@@H](CO)N(C(=O)c2ccc(-c3ccc(C#N)cc3C)cc2)C1` (single isomer, unassigned) [Example C0093], for which the IC50 is 1140 nM. Regarding `CON=C1C[C@@H](CO)N(C(=O)c2ncc(-c3cccc(C)c3C)nn2)C1` (single isomer, unassigned) [Example C0109], the IC50 was 367 nM. On to `CO/N=C1\C[C@@H]([C@H](C)O)N(C(=O)c2ccc(-c3cccc(C#N)c3C)cc2)C1` (single isomer, unassigned) [Example C0110], for which the IC50 worked out at 98.1 nM.

Compound `CON=C1C[C@@H](CO)N(C(=O)c2ccc3c(c2)COCc2c(C#N)cccc2-3)C1` (single isomer, unassigned) [Example C0142, (Z/E)-9-(2-(Hydroxymethyl)-4-(methoxyimino)pyrrolidine-1-carbonyl)-5,7-dihydrodibenzo[c,e]oxepine-4-carbonitrile] had an IC50 of 2940 nM. `CO/N=C1\CN(C(=O)c2ccc(-c3ccccc3C)cc2)C2(COC2)C1` [Example A0041, (Z)-(7-(Methoxyimino)-2-oxa-5-azaspiro[3.4]octan-5-yl)(2′-methyl-[1, 1′-biphenyl]-4-yl)methanone] came in with an IC50 of 575 nM. The value for `CON=C1C[C@@H](C2(O)CC2)N(C(=O)c2ccc(-c3ccccc3C)cc2)C1` [Example A0066, (S, EZ)-(2-(1-Hydroxycyclopropyl)-4-(methoxyimino)pyrrolidin-1-yl)(2′-methyl-[1,1′-biphenyl]-4-yl)methanone] was 197 nM. `CO/N=C1\CN(C(=O)c2ccc(-c3ccccc3C)cc2)C(CO)(CO)C1` [Example A0083, (Z)-(2,2-Bis(hydroxymethyl)-4-(methoxyimino)pyrrolidin-1-yl)(2′-methyl-[1, 1′-biphenyl]-4-yl)methanone]: the IC50 worked out at 539 nM. In turn, `CON=C1C[C@@H](c2nc3ccccc3o2)N(C(=O)c2ccc(-c3ccccc3C)cc2)C1` [Example A0086, (S, EZ)-(2-(Benzo[d]oxazol-2-yl)-4-(methoxyimino)pyrrolidin-1-yl)(2′-methyl-[1, 1′-biphenyl]-4-yl)methanone] gave an IC50 of 237 nM.

In turn, `CO/N=C1/CN(C(=O)c2ccc(-c3ccccc3C)cc2)C2(COC2)C1` [Example A0112, (E)-(7-(Methoxyimino)-2-oxa-5-azaspiro[3.4]octan-5-yl)(2′-methyl-[1, 1′-biphenyl]-4-yl)methanone] returned a half-inhibitory concentration (IC50) of 815 nM. Regarding `CO/N=C1/C[C@@H](CO)N(C(=O)c2ccc(-c3cccc(C)c3C#N)cc2)C1` [Example A0130, (S, Z)-4′-(2-(Hydroxymethyl)-4-(methoxyimino)pyrrolidine-1-carbonyl)-3-methyl-[1,1′-biphenyl]-2-carbonitrile], the IC50 turned out to be 647 nM. The compound `CO/N=C1/C[C@@H](CO)N(C(=O)c2ccc(-c3cccc(C)c3C)cc2C#N)C1` [Example A0131, 5-(2,3-Dimethylphenyl)-2-[(2S, 4Z)-2-(hydroxymethyl)-4-(methoxyimino)pyrrolidine-1-carbonyl]benzonitrile] showed an IC50 of 172 nM. `CO/N=C1/C[C@@H](CO)N(C(=O)c2cnc(-c3cccc(C)c3C)c(C(F)(F)F)n2)C1` [Example A0137] yielded an IC50 of 153 nM. `CO/N=C1\C[C@@H](CO)N(C(=O)c2ccc(-c3cccc(C)c3C#N)cc2)C1` [Example A0144, (S, E)-4′-(2-(Hydroxymethyl)-4-(methoxyimino)pyrrolidine-1-carbonyl)-3-methyl-[1,1′-biphenyl]-2-carbonitrile] displayed an IC50 of 1110 nM. The same measure for `CO/N=C1/C[C@@H](CO)N(C(=O)c2ccc(-c3cccc(C)c3C)c(OC3COC3)c2)C1` [Example A0147, (S, Z)-(2′, 3′-Dimethyl-2-(oxetan-3-yloxy)-[1, 1′-biphenyl]-4-yl)(2-(hydroxymethyl)-4-(methoxyimino)pyrrolidin-1-yl)methanone]: 23.5 nM; for `COCCOc1cc(C(=O)N2C/C(=N\OC)C[C@H]2CO)ccc1-c1cccc(C)c1C` [Example A0149, (S, Z)-(2-(Hydroxymethyl)-4-(methoxyimino)pyrrolidin-1-yl)(2-(2-methoxyethoxy)-2′, 3′-dimethyl-[1,1′-biphenyl]-4-yl)methanone]: 17.1 nM; for `CO/N=C1\C[C@@H](CO)N(C(=O)c2ccc(-c3cccc(C)c3C)cc2C#N)C1` [Example A0153, 5-(2,3-Dimethylphenyl)-2-[(2S, 4E)-2-(hydroxymethyl)-4-(methoxyimino)pyrrolidine-1-carbonyl]benzonitrile]: 485 nM. Consider `CO/N=C1/C[C@@H](CO)N(C(=O)c2ccc(-c3cccc(C)c3C)c(C(=O)N3CCOCC3)c2)C1` [Example A0158, (25, 4Z)-(2′, 3′-Dimethyl-2-(morpholine-4-carbonyl)-[1, 1′-biphenyl]-4-yl)(2-(hydroxymethyl)-4-(methoxyimino)pyrrolidin-1-yl)methanone], for which the IC50 came to 1520 nM. On to `CO/N=C1/C[C@@H](CO)N(C(=O)c2ccc(-c3cccc(C#N)c3C)c3c2OCC(=O)N3C)C1` [Example A0163, (S, Z)-3-(8-(2-(Hydroxymethyl)-4-(methoxyimino)pyrrolidine-1-carbonyl)-4-methyl-3-oxo-3,4-dihydro-2H-benzo[b][1,4]oxazin-5-yl)-2-methylbenzonitrile], for which the IC50 was 202 nM. `CO/N=C1\C[C@@H](CO)N(C(=O)c2ccc(-c3cccc(C)c3C)c(C(=O)NC3COC3)c2)C1` [Example A0179, (S, E)-4-(2-(Hydroxymethyl)-4-(methoxyimino)pyrrolidine-1-carbonyl)-2′, 3′-dimethyl-N-(oxetan-3-yl)-[1,1′-biphenyl]-2-carboxamide] had an IC50 of 165 nM.
